Results on three molecules are retold here after patent US20200230118A1, “USE OF BERBERINE OR ACTIVE METABOLITE THEREOF IN PREPARATION OF DRUG FOR PREVENTING AND/OR TREATING PHENYLKETONURIA” (Institute of Materia Medica, Chinese Academy of Medical …, priority 2017, published 2020).

The test system of assay [1] is α-methylphenylalanine induced phenylketonuria model of suckling rats. The experiment in a line: Therapeutic effect in α-methylphenylalanine induced phenylketonuria model of suckling rats. It is filed as in vivo, SD suckling rats. Here is the method:
The phenylpyruvate concentration and ratio of phenylalanine/tyrosine in blood are the key indicators for evaluating the therapeutic effect in phenylketonuria model of suckling rats.
SD suckling rats (1 day old) were purchased from Beijing Vital River Laboratory Animal Technology Co., Ltd. All the animals and female rats were fed in SPF environment (21±2° C., 12-hour photoperiod) and had free access to food and water during the experiment. Berberine was purchased from the J&K Technology Co. LTD (Beijing, China). Phenylpyruvate, phenylalanine, and tyrosine were purchased from Solarbio Science&Technology Co. LTD (Beijing, China). α-Methylphenylalanine was purchased from Sinuokai Technology Co. LTD (Nanjing, China).
High-performance liquid chromatography-triple quadrupole tandem mass spectrometry (LC-MS/MS 8050, Shimadzu Corporation, Japan) was used to quantitatively determine the concentration of dopa, phenylalanine, tyrosine, and phenylpyruvate. Alltima C18 (5 μm, 4.6×150 mm) chromatography column was used in the experiment, and the column temperature was maintained at 40° C. The mobile phase to measure L-dopa was water-formic acid (100: 0.2 v/v) and acetonitrile. The condition of gradient elution was as follows (A: B, 0 min, 90:10; 2.5 min, 80:20; 2.51 min, 5:95; 5 min, 5:95; 5.01 min, 90:10; 8 min 90:10). The flow rate was 0.8 mL/min. Multi-reaction monitoring mode was used for quantization, and the quantitative ion pair of dopa was 198.15→[…] (m/z). Phenylalanine, tyrosine, and phenylpyruvate level were determined using Alltima C18 (5 μm, 4.6×150 mm) chromatography column at column temperature of 40° C. The mobile phase contained water-formic acid (100:0.1 v/v) and methanol. The condition of gradient elution was as follows (A: B, 0 min, 90:10; 1 min, 90:10; 1.01 min, 60:40; 5 min, 5:95; 7 min, 5:95; 7.01 min 90:10; 10 min 90:10). The flow rate was 0.8 mL/min. Multi-reaction monitoring mode was used for quantization. The quantitative ion pair was: phenylalanine, 165.85→120.20; tyrosine, 182.00→136.10; phenylpyruvate, 163.00→91.00.
Experimental design: The animals were divided into 6 groups, including: the normal control group, the model group, the low-dose of oral berberine treated model group, the high-dose of oral berberine treated model group, the intraperitoneal berberine treated model group, and the oral berberine treated pseudo-germ-free model group. The establishment of model started at 2 days old of SD suckling rats, which were administrated for 10 days, and then they were treated for 7 days.
(1) Normal control group: normal saline (s.c.).
(2) Model group: a-methylphenylalanine (s.c. 50 mg/kg/d), and phenylalanine (s.c. 200 mg/kg/d);
(3) Low-dose of oral berberine treated model group: α-methylphenylalanine (s.c. 50 mg/kg/d), phenylalanine (s.c. 200 mg/kg/d), berberine (oral, 100 mg/kg/d);
(4) High-dose of oral berberine treated model group: α-methylphenylalanine (s.c. 50 mg/kg/d), phenylalanine (s.c. 200 mg/kg/d), berberine (oral, 200 mg/kg/d);
(5) Intraperitoneal berberine treated model group: α-methylphenylalanine (s.c. 50 mg/kg/d), phenylalanine (s.c. 200 mg/kg/d), berberine (i.p. 20 mg/kg/d);
(6) Oral berberine treated pseudo-germ-free model group: α-methylphenylalanine (s.c. 50 mg/kg/d), phenylalanine (s.c. 200 mg/kg/d), berberine (oral, 200 mg/kg/d); Antibiotic dose: cefadroxil (100 mg/kg/d), oxytetracycline (300 mg/kg/d), erythromycin (300 mg/kg/d).

Assay [2] has as its system ICR mice. The experiment in a line: Effect of jatrorrhizine on blood phenylpyruvate and tyrosine in ICR mice. The class given is in vivo. Here is the method: The concentrations of phenylpyruvate and tyrosine in blood are the key indicators to evaluate the therapeutic effect for phenylketonuria in children.
ICR mice (male, 20±2 g) were purchased from Beijing Vital River Laboratory Animal Technology Co., Ltd. All the animals were fed in SPF environment (21±2° C., 12-hour photoperiod) and had free access to food and water during the experiment. Berberine was purchased from the J&K Technology Co. LTD (Beijing, China). Phenylpyruvate, phenylalanine, and tyrosine were purchased from Solarbio Science&Technology Co. LTD (Beijing, China).
Experimental design: The animals were divided into three groups, including the control group, the 200 mg/kg jatrorrhizine oral treated group at 12 h, the 200 mg/kg jatrorrhizine oral treated group at 24 h.
(§1) (1) The control group: saline 0.2 mL (oral);
(2) The 200 mg/kg jatrorrhizine singe oral treated group at 12 h: 200 mg/kg jatrorrhizine (oral);
(3) The 200 mg/kg jatrorrhizine single oral treated group at 24 h: 200 mg/kg jatrorrhizine (oral).

The test system of assay [3] is ICR mice. The experiment in a line: Effect of dihydroberberine on blood phenylpyruvate and tyrosine in ICR mice. It is filed as in vivo. The method, then:
The concentrations of phenylpyruvate and tyrosine in blood are the key indicators to evaluate the therapeutic effect for phenylketonuria.
ICR mice (male, 20±2 g) were purchased from Beijing Vital River Laboratory Animal Technology Co., Ltd. All the animals were fed in SPF environment (21±2° C., 12-hour photoperiod) and had free access to food and water during the experiment. Berberine was purchased from the J&K Technology Co. LTD (Beijing, China). Dihydroberberine was purchased from the Mansite Biology & Technology Co. LTD (Chengdu, China). Phenylpyruvate, phenylalanine, and tyrosine were purchased from Solarbio Science&Technology Co. LTD (Beijing, China).
Experimental design: The animals were divided into three groups, including the control group, the 200 mg/kg dihydroberberine oral treated group at 12 h, the 200 mg/kg dihydroberberine oral treated group at 24 h.
as §1
(2) The 100 mg/kg dihydroberberine singe oral treated group at 12 h: 100 mg/kg […] (oral);
(3) The 100 mg/kg dihydroberberine singe oral treated group at 24 h: 100 mg/kg […] (oral).

As to `COc1ccc2cc3[n+](cc2c1OC)CCc1cc2c(cc1-3)OCO2` [berberine], the “Phenylalanine/tyrosine ratio in blood” value was “not significantly changed” in assay [1] (intraperitoneal injection 20 mg/kg/d (FIG. 2)); “significantly decreased” in assay [1] (oral 100 and 200 mg/kg/d, vs model group, dose-dependent (FIG. 2)); “not significantly changed” in assay [1] (pseudo-germ-free model, oral 200 mg/kg/d (FIG. 2)). For the same molecule, the “Concentration of dopa in brain” value is “not significantly changed” in assay [1] (intraperitoneal injection 20 mg/kg/d (FIG. 3)); “significantly increased” in assay [1] (oral 100 and 200 mg/kg/d, vs model group, dose-dependent (FIG. 3)); “not significantly changed” in assay [1] (pseudo-germ-free model, oral 200 mg/kg/d (FIG. 3)). Moreover, the “Concentration of dopamine in brain” value in assay [1] (intraperitoneal injection 20 mg/kg/d (FIG. 4)) is on record as “not significantly changed”; in assay [1] (oral 100 and 200 mg/kg/d, vs model group, dose-dependent (FIG. 4)), “significantly increased”; in assay [1] (pseudo-germ-free model, oral 200 mg/kg/d (FIG. 4)) it was “not significantly changed”. Besides, the “Phenylpyruvate level in blood” value is “not significantly changed” in assay [1] (intraperitoneal injection 20 mg/kg/d, 7 days (FIG. 1)); “significantly decreased” in assay [1] (oral 100 and 200 mg/kg/d for 7 days, vs model group, dose-dependent (FIG. 1)); “not significantly changed” in assay [1] (pseudo-germ-free (antibiotic treated) model, oral 200 mg/kg/d (FIG. 1)). In addition, the “Level of tyrosine in blood” value in assay [1] (oral administration) was “increase”.

As for `COc1cc2c(cc1O)CC[n+]1cc3c(OC)c(OC)ccc3cc1-2` [jatrorrhizine], the “Ratio of phenylalanine/tyrosine in blood” value in assay [2] (oral administration) is given as “reduce”. For the same molecule, the “Tyrosine level in blood” value in assay [2] (single oral 200 mg/kg, 12 h and 24 h, vs control (FIG. 5)) is “significantly increased”. Moreover, in assay [2] (single oral 200 mg/kg, 12 h and 24 h, vs control (FIG. 6)), the “Phenylpyruvate level in blood” value is “significantly decreased”.

For the molecule `COc1ccc2c(c1OC)CN1CCc3cc4c(cc3C1=C2)OCO4` [dihydroberberine], the “Ratio of phenylalanine/tyrosine in blood” value in assay [3] (oral administration) is listed as “reduce”. Moreover, the “Tyrosine level in blood” value in assay [3] (single oral 100 mg/kg (200 mg/kg), 12 h and 24 h, vs control (FIG. 7)) is on record as “significantly increased”. For the same molecule, the “Phenylpyruvate level in blood” value in assay [3] (single oral 100 mg/kg (200 mg/kg), 12 h and 24 h, vs control (FIG. 8)) is “significantly decreased”.
